Results on seven molecules are retold here after ChEMBL document CHEMBL5442219.

Common to all, as to details: Compound concentration 10 µM
Assay [1] has as its target T1, Alpha-1A adrenergic receptor (Homo sapiens) (UniProt P35348).
T1 sequence (whole entry): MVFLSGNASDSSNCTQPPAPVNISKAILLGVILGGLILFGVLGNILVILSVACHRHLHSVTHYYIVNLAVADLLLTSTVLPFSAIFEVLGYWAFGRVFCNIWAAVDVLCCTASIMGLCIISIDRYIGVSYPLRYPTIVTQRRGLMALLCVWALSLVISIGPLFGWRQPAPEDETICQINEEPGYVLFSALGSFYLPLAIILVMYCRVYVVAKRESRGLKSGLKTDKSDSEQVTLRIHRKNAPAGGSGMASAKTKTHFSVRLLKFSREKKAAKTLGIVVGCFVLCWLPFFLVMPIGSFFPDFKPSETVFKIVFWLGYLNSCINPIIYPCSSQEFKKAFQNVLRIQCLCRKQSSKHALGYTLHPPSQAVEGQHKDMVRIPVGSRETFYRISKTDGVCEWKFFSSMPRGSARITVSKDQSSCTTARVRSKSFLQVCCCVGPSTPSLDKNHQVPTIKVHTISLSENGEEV

The target in assay [2] is Beta-2 adrenergic receptor (Homo sapiens) (UniProt P07550).
Chain of Beta-2 adrenergic receptor (Homo sapiens) (P07550 whole entry, looked up): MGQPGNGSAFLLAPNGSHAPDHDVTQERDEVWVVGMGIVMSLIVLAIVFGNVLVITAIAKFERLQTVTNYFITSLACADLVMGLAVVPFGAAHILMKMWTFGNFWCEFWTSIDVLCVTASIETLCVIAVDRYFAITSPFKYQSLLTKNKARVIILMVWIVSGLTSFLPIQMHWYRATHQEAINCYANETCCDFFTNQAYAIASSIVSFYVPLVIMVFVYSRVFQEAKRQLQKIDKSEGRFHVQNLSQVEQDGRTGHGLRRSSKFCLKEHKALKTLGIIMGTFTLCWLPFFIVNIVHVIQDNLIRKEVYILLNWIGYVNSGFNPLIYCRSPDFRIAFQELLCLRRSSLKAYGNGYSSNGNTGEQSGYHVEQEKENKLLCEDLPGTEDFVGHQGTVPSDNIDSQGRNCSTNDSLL
In assay [3] the target is T2, Muscarinic acetylcholine receptor M1 (Homo sapiens) (UniProt P11229).
T2 sequence (whole entry): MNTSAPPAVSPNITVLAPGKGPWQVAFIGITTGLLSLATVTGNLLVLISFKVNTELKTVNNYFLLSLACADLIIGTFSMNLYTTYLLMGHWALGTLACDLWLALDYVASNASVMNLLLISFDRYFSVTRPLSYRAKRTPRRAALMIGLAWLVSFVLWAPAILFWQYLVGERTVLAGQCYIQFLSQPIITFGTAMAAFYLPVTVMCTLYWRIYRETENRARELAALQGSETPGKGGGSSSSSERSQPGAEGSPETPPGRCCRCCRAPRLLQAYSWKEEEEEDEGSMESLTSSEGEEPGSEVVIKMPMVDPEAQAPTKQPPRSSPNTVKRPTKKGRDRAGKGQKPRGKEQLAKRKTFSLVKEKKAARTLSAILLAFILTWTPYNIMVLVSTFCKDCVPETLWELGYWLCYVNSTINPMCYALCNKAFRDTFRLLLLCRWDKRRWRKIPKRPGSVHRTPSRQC

Assay [4] has as its target Muscarinic acetylcholine receptor M3 (Homo sapiens) (UniProt P20309).
Assay [5] has as its target D(2) dopamine receptor (Homo sapiens) (UniProt P14416).
Assay [6] deals with D(3) dopamine receptor (Homo sapiens) (UniProt P35462).
Chain of D(3) dopamine receptor (Homo sapiens) (P35462 whole entry): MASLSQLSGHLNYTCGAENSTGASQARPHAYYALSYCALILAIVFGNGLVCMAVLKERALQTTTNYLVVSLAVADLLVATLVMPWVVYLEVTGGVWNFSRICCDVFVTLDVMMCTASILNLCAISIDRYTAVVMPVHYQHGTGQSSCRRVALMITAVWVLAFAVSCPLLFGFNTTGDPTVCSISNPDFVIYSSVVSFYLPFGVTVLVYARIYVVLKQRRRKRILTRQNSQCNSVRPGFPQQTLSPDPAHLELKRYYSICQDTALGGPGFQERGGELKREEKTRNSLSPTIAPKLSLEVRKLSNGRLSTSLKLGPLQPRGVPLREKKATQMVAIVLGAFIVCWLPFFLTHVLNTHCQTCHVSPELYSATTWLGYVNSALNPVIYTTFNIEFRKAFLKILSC
Assay [7] concerns the target D(1B) dopamine receptor (Homo sapiens) (UniProt P21918).
Assay [8] deals with Histamine H1 receptor (Homo sapiens) (UniProt P35367).
Chain of Histamine H1 receptor (Homo sapiens) (P35367 whole entry): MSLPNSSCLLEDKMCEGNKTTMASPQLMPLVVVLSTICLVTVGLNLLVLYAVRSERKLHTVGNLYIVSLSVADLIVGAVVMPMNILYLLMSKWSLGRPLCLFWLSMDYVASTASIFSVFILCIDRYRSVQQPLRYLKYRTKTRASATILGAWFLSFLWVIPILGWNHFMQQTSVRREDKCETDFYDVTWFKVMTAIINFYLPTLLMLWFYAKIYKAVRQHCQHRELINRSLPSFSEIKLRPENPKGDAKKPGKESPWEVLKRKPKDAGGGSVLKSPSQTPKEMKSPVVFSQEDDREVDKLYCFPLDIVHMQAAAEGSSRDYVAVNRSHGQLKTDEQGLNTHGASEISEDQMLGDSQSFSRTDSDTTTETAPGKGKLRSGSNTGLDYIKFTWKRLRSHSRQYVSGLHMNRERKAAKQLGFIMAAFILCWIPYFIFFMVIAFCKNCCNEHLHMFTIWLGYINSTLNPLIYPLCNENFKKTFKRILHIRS
Assay [9] deals with Histamine H4 receptor (Homo sapiens) (UniProt Q9H3N8).
Chain of Histamine H4 receptor (Homo sapiens) (Q9H3N8 whole entry): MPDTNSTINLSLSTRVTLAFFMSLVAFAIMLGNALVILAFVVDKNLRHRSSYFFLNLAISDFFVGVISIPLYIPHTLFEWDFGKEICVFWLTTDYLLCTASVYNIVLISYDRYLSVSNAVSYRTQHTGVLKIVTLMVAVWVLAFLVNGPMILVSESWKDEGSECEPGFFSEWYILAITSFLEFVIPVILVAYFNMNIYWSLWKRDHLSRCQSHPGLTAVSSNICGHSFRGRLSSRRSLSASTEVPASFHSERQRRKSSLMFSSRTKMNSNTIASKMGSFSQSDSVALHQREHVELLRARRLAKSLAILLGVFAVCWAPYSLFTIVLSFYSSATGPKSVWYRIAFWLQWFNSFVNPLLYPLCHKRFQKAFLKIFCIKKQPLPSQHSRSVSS
Assay [10] deals with 5-hydroxytryptamine receptor 1B (Homo sapiens) (UniProt P28222).
Chain of 5-hydroxytryptamine receptor 1B (Homo sapiens) (P28222 whole entry): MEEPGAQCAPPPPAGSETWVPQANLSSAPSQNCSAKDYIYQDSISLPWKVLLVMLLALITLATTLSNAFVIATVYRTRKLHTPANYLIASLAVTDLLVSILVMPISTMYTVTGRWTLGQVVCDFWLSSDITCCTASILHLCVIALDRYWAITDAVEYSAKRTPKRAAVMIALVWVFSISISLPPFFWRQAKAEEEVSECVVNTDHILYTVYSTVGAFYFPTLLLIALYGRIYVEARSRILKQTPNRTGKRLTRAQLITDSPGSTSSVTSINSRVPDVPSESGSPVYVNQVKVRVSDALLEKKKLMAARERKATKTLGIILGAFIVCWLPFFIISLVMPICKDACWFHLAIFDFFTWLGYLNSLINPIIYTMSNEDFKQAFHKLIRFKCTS
Assay [11] concerns the target 5-hydroxytryptamine receptor 1D (Homo sapiens) (UniProt P28221).
For assay [12], the target named is 5-hydroxytryptamine receptor 2A (Homo sapiens) (UniProt P28223).
Assay [13] deals with 5-hydroxytryptamine receptor 2B (Homo sapiens) (UniProt P41595).
Assay [14] addresses T3, 5-hydroxytryptamine receptor 3A (Homo sapiens) (UniProt P46098).
T3 sequence (whole entry): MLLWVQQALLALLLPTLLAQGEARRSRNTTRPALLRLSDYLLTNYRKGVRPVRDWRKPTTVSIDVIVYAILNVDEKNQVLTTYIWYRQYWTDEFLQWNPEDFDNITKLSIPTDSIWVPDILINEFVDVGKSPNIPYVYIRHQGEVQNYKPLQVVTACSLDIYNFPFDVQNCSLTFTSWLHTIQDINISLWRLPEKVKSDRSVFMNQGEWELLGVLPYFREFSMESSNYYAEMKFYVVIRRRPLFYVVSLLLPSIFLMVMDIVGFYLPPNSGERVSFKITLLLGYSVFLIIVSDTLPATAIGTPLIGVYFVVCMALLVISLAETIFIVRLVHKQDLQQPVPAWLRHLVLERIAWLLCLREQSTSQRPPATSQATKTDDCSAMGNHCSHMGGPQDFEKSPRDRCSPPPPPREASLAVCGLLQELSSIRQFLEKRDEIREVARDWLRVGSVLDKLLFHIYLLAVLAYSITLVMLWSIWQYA

Assay [15] concerns the target Delta-type opioid receptor (Homo sapiens) (UniProt P41143).
Assay [16] concerns the target Mu-type opioid receptor (Homo sapiens) (UniProt P35372).
In assay [17] the target is Sodium-dependent dopamine transporter (Homo sapiens) (UniProt Q01959).
Chain of Sodium-dependent dopamine transporter (Homo sapiens) (Q01959 whole entry): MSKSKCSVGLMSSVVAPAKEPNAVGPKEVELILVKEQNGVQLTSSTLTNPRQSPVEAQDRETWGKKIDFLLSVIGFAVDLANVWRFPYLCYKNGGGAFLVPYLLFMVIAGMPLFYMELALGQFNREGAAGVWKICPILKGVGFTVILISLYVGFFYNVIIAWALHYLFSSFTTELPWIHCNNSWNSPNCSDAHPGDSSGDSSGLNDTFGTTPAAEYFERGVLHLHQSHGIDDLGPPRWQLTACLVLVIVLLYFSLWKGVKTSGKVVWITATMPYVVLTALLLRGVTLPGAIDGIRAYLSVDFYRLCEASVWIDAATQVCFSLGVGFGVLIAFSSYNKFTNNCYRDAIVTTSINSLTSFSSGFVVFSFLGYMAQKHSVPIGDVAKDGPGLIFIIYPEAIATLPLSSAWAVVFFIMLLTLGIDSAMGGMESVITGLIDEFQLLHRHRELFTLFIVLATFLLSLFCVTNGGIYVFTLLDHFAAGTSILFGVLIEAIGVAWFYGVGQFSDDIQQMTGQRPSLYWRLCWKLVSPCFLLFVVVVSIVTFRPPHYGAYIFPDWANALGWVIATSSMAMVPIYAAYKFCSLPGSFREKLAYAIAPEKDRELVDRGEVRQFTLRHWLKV
Assay [18] deals with Sigma intracellular receptor 2 (Homo sapiens) (UniProt Q5BJF2).
Chain of Sigma intracellular receptor 2 (Homo sapiens) (Q5BJF2 whole entry): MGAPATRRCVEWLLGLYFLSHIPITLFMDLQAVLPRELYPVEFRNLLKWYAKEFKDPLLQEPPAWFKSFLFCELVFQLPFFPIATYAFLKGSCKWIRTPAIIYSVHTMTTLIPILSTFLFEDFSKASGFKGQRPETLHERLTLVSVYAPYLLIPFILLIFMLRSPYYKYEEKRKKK
The target of assay [19] is T4, Alpha-1D adrenergic receptor (Homo sapiens) (UniProt P25100).
T4 sequence (whole entry): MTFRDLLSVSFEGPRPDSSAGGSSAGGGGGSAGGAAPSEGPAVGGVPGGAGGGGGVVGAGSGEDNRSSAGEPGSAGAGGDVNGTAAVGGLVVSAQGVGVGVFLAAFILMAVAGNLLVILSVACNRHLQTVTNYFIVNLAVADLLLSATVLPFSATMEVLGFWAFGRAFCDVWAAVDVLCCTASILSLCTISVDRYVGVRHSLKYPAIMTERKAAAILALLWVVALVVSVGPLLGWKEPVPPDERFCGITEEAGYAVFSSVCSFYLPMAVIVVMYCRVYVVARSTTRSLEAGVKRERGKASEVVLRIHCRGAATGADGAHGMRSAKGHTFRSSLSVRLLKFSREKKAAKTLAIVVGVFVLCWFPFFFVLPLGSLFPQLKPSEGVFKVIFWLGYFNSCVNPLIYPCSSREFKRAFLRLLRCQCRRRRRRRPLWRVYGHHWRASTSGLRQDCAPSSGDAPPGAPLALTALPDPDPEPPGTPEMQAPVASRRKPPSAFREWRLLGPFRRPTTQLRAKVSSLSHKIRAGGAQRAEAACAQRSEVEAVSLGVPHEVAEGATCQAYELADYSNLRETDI

Assay [20] addresses 5-hydroxytryptamine receptor 7 (Homo sapiens) (UniProt P34969).

The structures appear in SMILES notation.

Chain of Mu-type opioid receptor (Homo sapiens) (P35372 whole entry): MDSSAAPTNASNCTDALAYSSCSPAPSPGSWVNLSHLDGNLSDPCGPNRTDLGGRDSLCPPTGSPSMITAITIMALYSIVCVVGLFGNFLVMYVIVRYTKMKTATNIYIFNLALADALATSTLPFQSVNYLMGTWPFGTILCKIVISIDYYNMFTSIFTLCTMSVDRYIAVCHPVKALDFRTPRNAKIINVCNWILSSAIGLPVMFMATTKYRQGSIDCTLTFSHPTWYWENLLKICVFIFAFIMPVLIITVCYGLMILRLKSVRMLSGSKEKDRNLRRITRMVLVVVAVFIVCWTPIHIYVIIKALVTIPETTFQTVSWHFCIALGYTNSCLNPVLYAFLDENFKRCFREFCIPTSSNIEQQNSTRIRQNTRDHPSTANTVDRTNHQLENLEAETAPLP
Chain of 5-hydroxytryptamine receptor 1D (Homo sapiens) (P28221 whole entry): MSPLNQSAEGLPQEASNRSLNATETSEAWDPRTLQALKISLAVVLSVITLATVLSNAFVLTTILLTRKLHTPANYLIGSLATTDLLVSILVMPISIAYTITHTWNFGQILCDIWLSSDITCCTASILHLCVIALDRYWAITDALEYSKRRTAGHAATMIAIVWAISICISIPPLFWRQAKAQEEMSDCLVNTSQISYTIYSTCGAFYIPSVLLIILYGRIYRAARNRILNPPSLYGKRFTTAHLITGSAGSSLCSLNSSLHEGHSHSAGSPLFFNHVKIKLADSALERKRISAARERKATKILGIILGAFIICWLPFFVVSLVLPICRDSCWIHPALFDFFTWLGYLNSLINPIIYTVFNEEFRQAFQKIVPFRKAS
Chain of D(1B) dopamine receptor (Homo sapiens) (P21918 whole entry): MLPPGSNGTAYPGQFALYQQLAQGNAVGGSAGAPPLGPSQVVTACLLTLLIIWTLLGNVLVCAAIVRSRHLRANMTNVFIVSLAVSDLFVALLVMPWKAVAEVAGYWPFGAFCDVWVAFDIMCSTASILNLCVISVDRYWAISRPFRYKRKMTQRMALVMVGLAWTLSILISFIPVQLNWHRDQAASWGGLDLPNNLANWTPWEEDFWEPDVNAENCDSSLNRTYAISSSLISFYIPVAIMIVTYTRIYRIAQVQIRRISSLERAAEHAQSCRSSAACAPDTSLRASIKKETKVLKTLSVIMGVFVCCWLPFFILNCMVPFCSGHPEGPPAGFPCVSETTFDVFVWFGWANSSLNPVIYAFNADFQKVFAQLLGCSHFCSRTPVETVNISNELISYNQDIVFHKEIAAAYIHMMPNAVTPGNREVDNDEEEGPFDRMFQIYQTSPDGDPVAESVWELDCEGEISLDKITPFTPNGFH
Chain of Muscarinic acetylcholine receptor M3 (Homo sapiens) (P20309 whole entry, looked up): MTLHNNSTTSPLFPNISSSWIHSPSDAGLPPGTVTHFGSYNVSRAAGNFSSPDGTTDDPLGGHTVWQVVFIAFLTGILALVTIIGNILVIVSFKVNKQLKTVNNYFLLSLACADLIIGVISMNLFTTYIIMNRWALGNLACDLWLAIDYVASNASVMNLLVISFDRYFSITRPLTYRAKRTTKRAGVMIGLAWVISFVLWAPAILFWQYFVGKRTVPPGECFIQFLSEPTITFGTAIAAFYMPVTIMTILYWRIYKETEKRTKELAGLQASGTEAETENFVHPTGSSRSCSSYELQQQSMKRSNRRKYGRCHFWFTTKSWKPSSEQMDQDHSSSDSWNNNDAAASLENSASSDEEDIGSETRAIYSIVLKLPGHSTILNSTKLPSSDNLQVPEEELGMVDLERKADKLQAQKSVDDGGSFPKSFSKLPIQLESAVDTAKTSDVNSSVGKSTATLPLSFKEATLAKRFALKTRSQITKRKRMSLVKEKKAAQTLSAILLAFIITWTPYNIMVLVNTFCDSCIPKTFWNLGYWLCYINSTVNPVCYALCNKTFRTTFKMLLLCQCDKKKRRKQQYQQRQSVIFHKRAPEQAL

Broadly, the inhibition is the change of the read-out against control, counted positive when it falls. Regarding `O=C1N/C(=N/c2ccccc2F)S/C1=C\c1ccc(C(=O)O)cc1`, the inhibition in assay [1] was -2.85%; in [2], 6.54%; in [3], 17.1%; in assay [4], -5.5%; in [5], 0.9%; in [6], 5.3%. For the same molecule, the inhibition is 6.76% in [7]; 42.9% in assay [8]; -4.83% in assay [9]; -8.69% in assay [10]; 19% in [11]; -0.36% in assay [12]. The inhibition in [13] is -3.68%; in assay [14], -3.21%; in assay [15], -1.84%; in [16] it was 56%; in [17], 33.1%; in assay [18], 33.9%.

`O=C(O)Cn1c(C(=O)Nc2nc(-c3ccccc3Cl)cs2)cc2ccccc21`: the inhibition in assay [19] is -3.75%; in assay [2] it was -7.21%; in [3], 6.86%; in [4], 0.53%; in [5] it was 14.1%; in assay [6] it was 7.11%. Besides, the inhibition is -2.39% in assay [7]; -9.22% in [8]; 13.6% in assay [9]; 11.2% in assay [10]; 38.3% in [11]; 0.94% in assay [13]. Moreover, the inhibition was 19% in [15], 8.9% in [16], 47.6% in [17] and 36.6% in assay [18].

On to `COc1cc2nc(N3CCN(C(=O)c4ccco4)CC3)nc(N)c2cc1OC`, for which the inhibition in assay [1] is 98.7%; in assay [19], 0%; in assay [2], 1.53%; in assay [5] it was 49.2%; in [6] it was 37.6%; in assay [7] it was 7.69%. Moreover, the inhibition is 1.83% in assay [9]; 27.2% in assay [10]; 54.3% in assay [13]; 2.09% in assay [14]; 23.8% in [20]; 4.29% in assay [15]. Moreover, the inhibition in [16] was 50%; in assay [17], 29.4%; in [18], 27.6%.

Regarding `c1cc(CN2CCCNCCNCCCNCC2)ccc1CN1CCCNCCNCCCNCC1`, the inhibition in assay [1] is -9.28%; in assay [19] it was -0.54%; in assay [2], -4.45%; in assay [3] it was 62.3%; in assay [4], -4.94%; in assay [5], -1.67%. Further, the inhibition in assay [6] was 37.2%; in assay [7], -5.65%; in assay [8], -5.42%; in assay [9] it was 11.2%; in [10], 4.06%; in assay [11], 1.3%. Also, the inhibition was 0.83% in assay [12]; 21.9% in [14]; -4.5% in assay [15]; 13.8% in assay [16]; 53.6% in assay [17]; 22.5% in assay [18].

Consider `COC(=O)[C@H]1[C@H]2C[C@H]3c4[nH]c5ccccc5c4CCN3C[C@H]2CC[C@@H]1O`, for which the inhibition in assay [1] is 66.2%; in assay [19], 58.7%; in [2] it was -6.47%; in assay [5] it was 49.4%; in assay [6], 31%; in assay [7], 11.8%. The inhibition in assay [9] was 8.74%; in assay [10], 98.4%; in assay [13], 94.3%; in assay [14], -2.94%; in assay [20], 85.2%; in assay [15], -0.55%. The results for the inhibition in assay [16], in [17] and in [18] were 28.7%, 6.37% and 22.8%, respectively.

On to `Cc1cn2cc(CC(=O)N3CCC4(CC3)CN(Cc3ccc(-n5nccn5)cc3Cl)C4)nc2s1`, for which the inhibition in assay [1] is -6.22%; in [19], 13.3%; in [2], 67.1%; in assay [3] it was 51.1%; in assay [4], 98.2%; in [5], 25.1%. Further, the inhibition in [6] was 71.1%; in assay [7] it was -4.31%; in assay [8] it was 30.4%; in [9], -5.48%; in [11], 4.85%; in [12] it was -2.36%. The inhibition in [13] is 19.4%; in [14], 1.22%; in [15] it was 18.8%; in [16] it was 21.4%; in assay [17] it was 44.2%; in assay [18], 43.3%.

In the case of `COc1ccc(CNC(=O)c2cc(-c3cncc(Cl)c3)cnc2-c2ccccn2)nc1OC`, the inhibition was 0.56% in [1]; -7.71% in assay [19]; -9.92% in assay [2]; -7.31% in [3]; -0.37% in assay [4]; 17.4% in assay [5]. Moreover, the inhibition was 7.89% in [6]; 1.18% in assay [7]; 17.4% in assay [8]; 5.15% in [9]; -4.47% in assay [10]; -5.62% in assay [11]. Besides, the inhibition was 88.7% in [12]; -6.96% in [13]; -4.67% in [15]; 30.5% in [16]; 36.3% in assay [17]; 16.4% in assay [18].
